{
  "source": "ChEMBL document CHEMBL1154370",
  "about": "“Palmyramide A, a cyclic depsipeptide from a Palmyra Atoll collection of the marine cyanobacterium Lyngbya majuscula” (J Nat Prod, 2010)",
  "key": {"NCI-H460": {"tested_on": "NCI-H460", "experiment": "Cytotoxicity against human H460 cells after 48 hrs by MTT assay", "assay_type": "functional, cell-based", "conditions": "NCI-H460, 48 h"}, "[1]": {"experiment": "Inhibition of voltage-gated sodium channel in mouse Neuro2a cells assessed as suppression of quabain and veratridine-induced sodium overload cytotoxicity after 24 hrs by MTT assay", "assay_type": "cell-based", "conditions": "N2a"}},
  "data": [
    {"smiles": "CCC[C@H]1OC(=O)[C@H](C(C)C)NC(=O)[C@@H](C(C)C)N(C)C(=O)[C@@H]2CCCN2C(=O)[C@H](Cc2ccccc2)OC(=O)[C@H](C)OC(=O)C1(C)C", "note": "[PALMYRAMIDE A]", "values": [
      {"measurement": "IC50", "setting": "NCI-H460", "value": 39.7, "unit": "µM"},
      {"measurement": "IC50", "setting": "[1]", "value": 17.2, "unit": "µM"}
    ]}
  ]
}
